Data as given in PubChem BioAssay (NCI).
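Grown in 96-well plates, cells were treated for 48 hours with each compound at five concentrations. Insufficient inhibition: endpoint recorded as highest concentration tested. GI50 = concentration required for 50% inhibition of growth. TGI denotes the concentration required for complete inhibition of growth.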

Key:
Assay in all cases: NCI tumour cell line growth inhibition, 48 h
786-0 renal = system: 786-0 renal
A498 renal = system: A498 renal
ACHN renal = system: ACHN renal
CAKI-1 renal = system: CAKI-1 renal
CCRF-CEM leukemia = system: CCRF-CEM leukemia
DU-145 prostate = system: DU-145 prostate
EKVX NSCLC = system: EKVX NSCLC
HCT-15 colon = system: HCT-15 colon
HOP-62 NSCLC = system: HOP-62 NSCLC
HOP-92 NSCLC = system: HOP-92 NSCLC
HS 578T breast = system: HS 578T breast
HT29 colon = system: HT29 colon
IGROV1 ovarian = system: IGROV1 ovarian
K-562 leukemia = system: K-562 leukemia
KM12 colon = system: KM12 colon
LOX IMVI melanoma = system: LOX IMVI melanoma
M14 melanoma = system: M14 melanoma
MALME-3M melanoma = system: MALME-3M melanoma
MCF7 breast = system: MCF7 breast
MDA-MB-231 breast = system: MDA-MB-231 breast
MOLT-4 leukemia = system: MOLT-4 leukemia
NCI-H226 lung = system: NCI-H226 lung
NCI-H23 lung = system: NCI-H23 lung
NCI-H522 lung = system: NCI-H522 lung
OVCAR-3 ovarian = system: OVCAR-3 ovarian
OVCAR-4 ovarian = system: OVCAR-4 ovarian
OVCAR-5 ovarian = system: OVCAR-5 ovarian
OVCAR-8 ovarian = system: OVCAR-8 ovarian
PC-3 prostate = system: PC-3 prostate
RPMI-8226 leukemia = system: RPMI-8226 leukemia
RXF 393 renal = system: RXF 393 renal
SF-268 CNS = system: SF-268 CNS
SF-539 CNS = system: SF-539 CNS
SK-MEL-2 melanoma = system: SK-MEL-2 melanoma
SK-MEL-28 melanoma = system: SK-MEL-28 melanoma
SK-MEL-5 melanoma = system: SK-MEL-5 melanoma
SK-OV-3 ovarian = system: SK-OV-3 ovarian
SN12C renal = system: SN12C renal
SNB-19 CNS = system: SNB-19 CNS
SW-620 colon = system: SW-620 colon
T-47D breast = system: T-47D breast
TK-10 renal = system: TK-10 renal
U251 CNS = system: U251 CNS
UACC-257 melanoma = system: UACC-257 melanoma
UACC-62 melanoma = system: UACC-62 melanoma
UO-31 renal = system: UO-31 renal
A549 NSCLC = system: A549 NSCLC
BT-549 breast = system: BT-549 breast
COLO 205 colon = system: COLO 205 colon
HCC-2998 colon = system: HCC-2998 colon
HCT-116 colon = system: HCT-116 colon
HL-60(TB) leukemia = system: HL-60(TB) leukemia
MDA-MB-435 = system: MDA-MB-435
NCI-H460 lung = system: NCI-H460 lung
NCI/ADR-RES ovarian = system: NCI/ADR-RES ovarian
SF-295 CNS = system: SF-295 CNS
SNB-75 CNS = system: SNB-75 CNS
SR leukemia = system: SR leukemia

COc1cccc(-c2cc(=O)c3cc(N4CCCCC4)ccc3[nH]2)c1
TGI (786-0 renal): > 48 µM | TGI (A498 renal): > 100 µM | TGI (ACHN renal): > 96.6 µM | TGI (CAKI-1 renal): > 100 µM | TGI (CCRF-CEM leukemia): > 100 µM | TGI (DU-145 prostate): > 100 µM | TGI (EKVX NSCLC): > 100 µM | TGI (HCT-15 colon): > 100 µM | TGI (HOP-62 NSCLC): > 43.9 µM | TGI (HOP-92 NSCLC): > 100 µM | TGI (HS 578T breast): > 86.1 µM | TGI (HT29 colon): 0.0316 µM | TGI (IGROV1 ovarian): > 100 µM | TGI (K-562 leukemia): > 100 µM | TGI (KM12 colon): 0.783 µM | TGI (LOX IMVI melanoma): > 100 µM | TGI (M14 melanoma): > 100 µM | TGI (MALME-3M melanoma): > 100 µM | TGI (MCF7 breast): > 100 µM | TGI (MDA-MB-231 breast): > 100 µM | TGI (MOLT-4 leukemia): > 100 µM | TGI (NCI-H226 lung): 0.0652 µM | TGI (NCI-H23 lung): > 20.4 µM | TGI (NCI-H522 lung): > 21 µM | TGI (OVCAR-3 ovarian): 13.3 µM | TGI (OVCAR-4 ovarian): > 57.9 µM | TGI (OVCAR-5 ovarian): > 100 µM | TGI (OVCAR-8 ovarian): > 100 µM | TGI (PC-3 prostate): > 100 µM | TGI (RPMI-8226 leukemia): > 100 µM | TGI (RXF 393 renal): 1.62 µM | TGI (SF-268 CNS): > 100 µM | TGI (SF-539 CNS): 0.0139 µM | TGI (SK-MEL-2 melanoma): > 100 µM | TGI (SK-MEL-28 melanoma): > 100 µM | TGI (SK-MEL-5 melanoma): 9.55 µM | TGI (SK-OV-3 ovarian): > 100 µM | TGI (SN12C renal): > 100 µM | TGI (SNB-19 CNS): > 100 µM | TGI (SW-620 colon): > 100 µM | TGI (T-47D breast): > 100 µM | TGI (TK-10 renal): > 100 µM | TGI (U251 CNS): > 85.9 µM | TGI (UACC-257 melanoma): > 100 µM | TGI (UACC-62 melanoma): > 100 µM | TGI (UO-31 renal): > 100 µM

O=S(=O)(O)c1cc(N=Nc2c(O)ccc3ccccc23)cc2c(S(=O)(=O)O)cccc12
TGI (786-0 renal): > 100 µM | TGI (A498 renal): > 100 µM | TGI (A549 NSCLC): > 100 µM | TGI (ACHN renal): > 100 µM | TGI (BT-549 breast): > 100 µM | TGI (CAKI-1 renal): > 100 µM | TGI (CCRF-CEM leukemia): > 100 µM | TGI (COLO 205 colon): > 100 µM | TGI (EKVX NSCLC): > 100 µM | TGI (HCC-2998 colon): > 100 µM | TGI (HCT-116 colon): > 100 µM | TGI (HCT-15 colon): > 100 µM | TGI (HL-60(TB) leukemia): > 100 µM | TGI (HOP-62 NSCLC): > 100 µM | TGI (HOP-92 NSCLC): > 100 µM | TGI (HS 578T breast): > 100 µM | TGI (HT29 colon): > 100 µM | TGI (IGROV1 ovarian): > 100 µM | TGI (K-562 leukemia): > 100 µM | TGI (KM12 colon): > 100 µM | TGI (M14 melanoma): > 100 µM | TGI (MALME-3M melanoma): > 100 µM | TGI (MCF7 breast): > 100 µM | TGI (MDA-MB-231 breast): > 100 µM | TGI (MDA-MB-435): > 100 µM | TGI (MOLT-4 leukemia): > 100 µM | TGI (NCI-H226 lung): > 100 µM | TGI (NCI-H460 lung): > 100 µM | TGI (NCI-H522 lung): > 100 µM | TGI (NCI/ADR-RES ovarian): > 100 µM | TGI (OVCAR-3 ovarian): > 100 µM | TGI (OVCAR-4 ovarian): > 100 µM | TGI (OVCAR-5 ovarian): > 100 µM | TGI (OVCAR-8 ovarian): > 100 µM | TGI (PC-3 prostate): > 100 µM | TGI (RPMI-8226 leukemia): > 100 µM | TGI (RXF 393 renal): > 100 µM | TGI (SF-268 CNS): > 100 µM | TGI (SF-295 CNS): > 100 µM | TGI (SF-539 CNS): > 100 µM | TGI (SK-MEL-2 melanoma): > 100 µM | TGI (SK-MEL-28 melanoma): > 100 µM | TGI (SK-MEL-5 melanoma): > 100 µM | TGI (SK-OV-3 ovarian): > 100 µM | TGI (SNB-19 CNS): > 100 µM | TGI (SNB-75 CNS): > 100 µM | TGI (SR leukemia): > 100 µM | TGI (SW-620 colon): > 100 µM | TGI (TK-10 renal): > 100 µM | TGI (U251 CNS): > 100 µM | TGI (UACC-257 melanoma): > 100 µM | TGI (UACC-62 melanoma): > 100 µM | TGI (UO-31 renal): > 100 µM

CCCCCCOc1ccc(/C=N/Nc2cc(C)nc3ccc(Cl)cc23)cc1
GI50 (A498 renal): 1.77 µM | TGI (A498 renal): 3.4 µM | GI50 (A549 NSCLC): 1.93 µM | TGI (A549 NSCLC): 3.73 µM | GI50 (ACHN renal): 1.71 µM | TGI (ACHN renal): 3.08 µM | GI50 (CAKI-1 renal): 1.65 µM | TGI (CAKI-1 renal): 3.06 µM | GI50 (COLO 205 colon): 1.58 µM | TGI (COLO 205 colon): 3.04 µM | GI50 (DU-145 prostate): 1.86 µM | TGI (DU-145 prostate): 3.57 µM | GI50 (HCC-2998 colon): 1.93 µM | TGI (HCC-2998 colon): 3.45 µM | GI50 (HCT-15 colon): 1.27 µM | TGI (HCT-15 colon): 2.55 µM | GI50 (HL-60(TB) leukemia): 1.39 µM | TGI (HL-60(TB) leukemia): 3.38 µM | GI50 (HOP-62 NSCLC): 1.55 µM | TGI (HOP-62 NSCLC): 3.08 µM | GI50 (HOP-92 NSCLC): 1.42 µM | TGI (HOP-92 NSCLC): 3.07 µM | GI50 (HT29 colon): 1.59 µM | TGI (HT29 colon): 3.09 µM | GI50 (IGROV1 ovarian): 1.79 µM | TGI (IGROV1 ovarian): 3.53 µM | GI50 (K-562 leukemia): 0.467 µM | TGI (K-562 leukemia): 2.22 µM | GI50 (KM12 colon): 1.67 µM | TGI (KM12 colon): 3.38 µM | GI50 (LOX IMVI melanoma): 1.26 µM | TGI (LOX IMVI melanoma): 2.57 µM | GI50 (M14 melanoma): 1.71 µM | TGI (M14 melanoma): 3.36 µM | GI50 (MALME-3M melanoma): 1.91 µM | TGI (MALME-3M melanoma): 3.44 µM | GI50 (MCF7 breast): 1.47 µM | TGI (MCF7 breast): 3.2 µM | GI50 (MDA-MB-231 breast): 1.67 µM | TGI (MDA-MB-231 breast): 3.24 µM | GI50 (MDA-MB-435): 1.71 µM | TGI (MDA-MB-435): 3.15 µM | GI50 (MOLT-4 leukemia): 1.85 µM | TGI (MOLT-4 leukemia): 4.05 µM | GI50 (NCI-H23 lung): 1.88 µM | TGI (NCI-H23 lung): 3.54 µM | GI50 (NCI-H522 lung): 1.79 µM | TGI (NCI-H522 lung): 3.51 µM | GI50 (NCI/ADR-RES ovarian): 1.9 µM | TGI (NCI/ADR-RES ovarian): 3.7 µM | GI50 (OVCAR-3 ovarian): 2.05 µM | TGI (OVCAR-3 ovarian): 3.74 µM | GI50 (OVCAR-4 ovarian): 1.75 µM | TGI (OVCAR-4 ovarian): 3.18 µM | GI50 (OVCAR-5 ovarian): 1.92 µM | TGI (OVCAR-5 ovarian): 3.35 µM | GI50 (OVCAR-8 ovarian): 1.91 µM | TGI (OVCAR-8 ovarian): 4.21 µM | GI50 (PC-3 prostate): 1.57 µM | TGI (PC-3 prostate): 3.21 µM | GI50 (RXF 393 renal): 1.56 µM | TGI (RXF 393 renal): 2.97 µM | GI50 (SF-295 CNS): 1.73 µM | TGI (SF-295 CNS): 3.24 µM | GI50 (SF-539 CNS): 1.84 µM | TGI (SF-539 CNS): 3.26 µM | GI50 (SK-MEL-2 melanoma): 1.72 µM | TGI (SK-MEL-2 melanoma): 3.24 µM | GI50 (SK-MEL-28 melanoma): 1.76 µM | TGI (SK-MEL-28 melanoma): 3.18 µM | GI50 (SK-MEL-5 melanoma): 1.69 µM | TGI (SK-MEL-5 melanoma): 3.06 µM | GI50 (SK-OV-3 ovarian): 1.7 µM | TGI (SK-OV-3 ovarian): 3.11 µM | GI50 (SN12C renal): 1.69 µM | TGI (SN12C renal): 3.18 µM | GI50 (SNB-19 CNS): 1.88 µM | TGI (SNB-19 CNS): 3.39 µM | GI50 (SNB-75 CNS): 1.81 µM | TGI (SNB-75 CNS): 3.43 µM | GI50 (SR leukemia): 0.336 µM | TGI (SR leukemia): 1.6 µM | GI50 (T-47D breast): 1.98 µM | TGI (T-47D breast): 3.97 µM | GI50 (TK-10 renal): 1.89 µM | TGI (TK-10 renal): 3.32 µM | GI50 (U251 CNS): 1.9 µM | TGI (U251 CNS): 3.43 µM | GI50 (UACC-257 melanoma): 1.61 µM | TGI (UACC-257 melanoma): 3.26 µM | GI50 (UACC-62 melanoma): 1.78 µM | TGI (UACC-62 melanoma): 3.27 µM | GI50 (UO-31 renal): 1.5 µM | TGI (UO-31 renal): 2.88 µM
